For data set [1] the following is noted: clinical studies, Kappos et al 2006; cited from earlier work.
Data set [2] concerns the target T1, human Endothelial Differentiation G-protein Coupled Receptor 3 (EDG3), S1P3 receptor (Homo sapiens, UniProt Q99500).
T1 construct: expressed in transfected cells; host or cells: GeneBLAzer EDG3-Ga15-NFAT-bla HEK 293T
The data set can be described thus: S1P3 Assay (GeneBLAzer EDG3-Ga15-NFAT-bla HEK 293T beta-lactamase reporter, agonist dose response). The class given is cell-based. To be noted: EDG3-Ga15-NFAT-bla HEK 293T cells, blue/green emission ratio, 10 point dose response, free base or salt form; read-out: pEC50 (S1P3 assay) (converted). An outline of the steps:
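HEK 293T cells stably expressing human EDG3 with Ga15 and NFAT-beta-lactamase reporter, ~10,000 cells/well, exposed overnight at 37 °C to 10-point compound doses in charcoal-stripped serum medium. CCF4-AM substrate loaded 2 h at room temperature; 460/530 nm ratio normalized to DMSO and agonist controls, sigmoidal fit; intrinsic activity relative to reference agonist maximum (100%).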

Data set [3] deals with T2, human Endothelial Differentiation Gene 1 (EDG1), S1P1 receptor (Homo sapiens, UniProt P21453).
T2 construct: TEV protease site; Gal4-VP16 transcription factor; expressed in transfected cells; host or cells: EDG1-bla/U2OS (Tango GPCR-bla U2OS parental cell line)
The data set can be described thus: S1P1 Assay (Tango EDG1-bla/U2OS beta-lactamase reporter, agonist dose response). To be noted: EDG1-bla/U2OS cells, blue/green emission ratio, 10 point dose response, free base or salt form; read-out: pEC50 (S1P1 assay) (converted). The class given is cell-based. An outline of the steps:
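U2OS Tango cells with human EDG1 coupled to TEV site/Gal4-VP16 beta-lactamase reporter, serum-starved 24 h, then exposed overnight at 37 °C to 10-point compound dilutions. CCF4-AM FRET substrate 2 h RT; 460/530 nm ratio normalised to agonist and DMSO controls, sigmoidal fit; intrinsic activity relative to a reference compound set at 100%.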

Structures can show the parent of a compound that is named as a salt. Some results are limits rather than exact numbers.

T2 sequence (P21453 whole entry, the tested form may be a part): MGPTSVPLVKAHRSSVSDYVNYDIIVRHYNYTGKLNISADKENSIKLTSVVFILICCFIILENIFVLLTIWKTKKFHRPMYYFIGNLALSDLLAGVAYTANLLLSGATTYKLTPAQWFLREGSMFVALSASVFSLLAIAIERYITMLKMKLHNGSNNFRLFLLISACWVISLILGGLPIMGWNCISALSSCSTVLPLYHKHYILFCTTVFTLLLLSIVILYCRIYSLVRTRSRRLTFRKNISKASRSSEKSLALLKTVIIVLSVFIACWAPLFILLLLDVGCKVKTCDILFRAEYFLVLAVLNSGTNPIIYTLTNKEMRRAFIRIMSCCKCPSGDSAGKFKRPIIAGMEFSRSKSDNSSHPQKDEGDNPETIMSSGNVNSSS
T1 sequence (Q99500 whole entry): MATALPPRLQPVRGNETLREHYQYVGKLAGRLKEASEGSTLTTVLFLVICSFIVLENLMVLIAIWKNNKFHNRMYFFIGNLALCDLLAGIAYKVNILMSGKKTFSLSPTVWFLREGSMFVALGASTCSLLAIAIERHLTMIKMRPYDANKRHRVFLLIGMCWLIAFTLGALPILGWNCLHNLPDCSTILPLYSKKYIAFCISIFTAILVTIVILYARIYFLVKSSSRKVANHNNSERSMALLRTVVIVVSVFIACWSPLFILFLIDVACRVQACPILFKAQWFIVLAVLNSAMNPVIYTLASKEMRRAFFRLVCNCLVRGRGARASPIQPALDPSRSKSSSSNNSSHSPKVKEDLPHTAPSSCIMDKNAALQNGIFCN

With `CCCCCCCCc1ccc(CCC(N)(CO)CO)cc1` [FTY720], the bradycardia on treatment entry in data set [1] is on record as “bradycardia in the first 24 hours of treatment”.
On to `CCc1c(CN2CCC(C(=O)O)CC2)cccc1-c1nnc(-c2ccc(OC(C)C)c(C(F)(F)F)c2)s1` [Example 1, 1-[(2-ethyl-3-{5-[4-[(1-methylethyl)oxy]-3-(trifluoromethyl)phenyl]-1,3,4-thiadiazol-2-yl}phenyl)methyl]-4-piperidinecarboxylic acid], for which the EC50 in data set [2] was more than 3160 nM; in data set [3], less than 1 nM.
The matching figures for `CCc1c(CCN2C[C@H](O)C[C@H]2C(=O)O)cccc1-c1cnc(-c2ccc(OC(C)C)c(C#N)c2)s1` [Example 91]: more than 10000 nM and not above 10 nM.
As for `COc1c(CCN2CCC(C(=O)O)CC2)cccc1-c1nsc(-c2ccc(OC(C)C)c(Cl)c2)n1` [Example 73, 1-{2-[3-(5-{3-chloro-4-[(1-methylethyl)oxy]phenyl}-1,2,4-thiadiazol-3-yl)-2-(methyloxy)phenyl]ethyl}-4-piperidinecarboxylic acid trifluoroacetate], the EC50 is more than 3160 nM in data set [2] and not above 10 nM in data set [3].
The matching figures for `CCc1c(CCCN2CCC(C(=O)O)C2)cccc1-c1cnc(-c2ccc(OC(C)C)c(C#N)c2)s1` (stereo not shown) [Example 94]: more than 3160 nM and not above 10 nM.
Take `CCc1c(CCN2CC[C@H](C(=O)O)C2)cccc1-c1nnc(-c2ccc(CC(C)C)c(C#N)c2)s1` [Example 62]: the EC50 in data set [2] was more than 3160 nM; in data set [3] it was less than 1 nM.
For the molecule `CCc1c(CN2CCC(C(=O)O)CC2)cccc1-c1cnc(-c2ccc(OC(C)C)c(C(F)(F)F)c2)s1` [Example 32, 1-[(2-ethyl-3-{2-[4-[(1-methylethyl)oxy]-3-(trifluoromethyl)phenyl]-1,3-thiazol-5-yl}phenyl)methyl]-4-piperidinecarboxylic acid], the figures for the EC50 in data set [2] and in data set [3] were more than 3160 nM and less than 1 nM, respectively.
The matching figures for `CCc1c(CCN2CCC[C@H]2C(=O)O)cccc1-c1nnc(-c2ccc(CC(C)C)c(C#N)c2)s1` [Example 59, 1-[2-(3-{5-[3-cyano-4-(2-methylpropyl)phenyl]-1,3,4-thiadiazol-2-yl}-2-ethylphenyl)ethyl]-L-proline]: more than 10000 nM and not above 10 nM.
As to `CCc1c(CN2CCC(CC(=O)O)CC2)cccc1-c1cnc(-c2ccc(OC(C)C)c(C#N)c2)s1` [Example 87], the EC50 in data set [2] was more than 10000 nM; in data set [3], less than 100 nM.
The like results for `CCc1c(CN2CCC(C(=O)O)CC2)cccc1-c1nsc(-c2ccc(OC(C)C)c(C(F)(F)F)c2)n1` [Example 18, 1-[(2-ethyl-3-{5-[4-[(1-methylethyl)oxy]-3-(trifluoromethyl)phenyl]-1,2,4-thiadiazol-3-yl}phenyl)methyl]-4-piperidinecarboxylic acid trifluoroacetate] were, in that order, more than 3160 nM and less than 100 nM.
As for `CCc1c(CCN2CCCC(C(=O)O)C2)cccc1-c1nsc(-c2ccc(OC(C)C)c(Cl)c2)n1` (stereo not shown) [Example 70], the EC50 is more than 3160 nM in data set [2] and less than 1 nM in data set [3].
With `CCc1c(CCN2CCCC(C(=O)O)C2)cccc1-c1nnc(-c2ccc(CC(C)C)c(C#N)c2)s1` (stereo not shown) [Example 63], the results for the EC50 in data set [2] and in data set [3] were more than 3160 nM and less than 1 nM, respectively.
The like results for `CCc1c(CN2CCCC(C(=O)O)C2)cccc1-c1nnc(-c2ccc(OC(C)C)c(Cl)c2)s1` (stereo not shown) [Example 46] were, in that order, more than 10000 nM and less than 100 nM.
Take `CCc1c(CCN2CCC(C(=O)O)CC2)cccc1-c1nsc(-c2cnc(OC(C)C)c(Cl)c2)n1` [Example 75, 1-{2-[3-(5-{5-chloro-6-[(1-methylethyl)oxy]-3-pyridinyl}-1,2,4-thiadiazol-3-yl)-2-ethylphenyl]ethyl}-4-piperidinecarboxylic acid trifluoroacetate]: the EC50 in data set [2] was more than 3160 nM; in data set [3] it was not above 10 nM.
Take `CCc1c(CN2CCC(C(=O)O)CC2)cccc1-c1cnc(-c2ccc(CC(C)C)c(C#N)c2)s1` [Example 42, 1-[(3-{2-[3-cyano-4-(2-methylpropyl)phenyl]-1,3-thiazol-5-yl}-2-ethylphenyl)methyl]-4-piperidinecarboxylic acid trifluoroacetate]: the EC50 in data set [2] was more than 10000 nM; in data set [3], not above 10 nM.
Take `CCc1c(CCN2CCC(C(=O)O)CC2)cccc1-c1cnc(-c2ccc(OC(C)C)c(C#N)c2)s1` [Example 37, 1-{2-[3-(2-{3-cyano-4-[(1-methylethyl)oxy]phenyl}-1,3-thiazol-5-yl)-2-ethylphenyl]ethyl}-4-piperidinecarboxylic acid trifluoroacetate]: the results for the EC50 in data set [2] and in data set [3] were 933 nM and less than 1 nM, respectively.

Source of the values: patent US8389508B2 (Glaxo Group Limited, priority 2010, dated 2013).
